Structures can show the parent of a compound that is named as a salt. Where two headings read alike, the source gives them in different places. Values belong to the molecule of their own block, whether it stands above or below them.
What was measured:
[1] = target: T1, 12-lipoxygenase (Bos taurus, UniProt F1MFA8); test: inhibiting action upon blood platelet 12-lipoxygenase; type: biochemical, bovine; conditions: for inhibition at 1000 µM: pH 7.4, with 1,000 μM of each compound, read-out: 12-lipoxygenase, inhibiting ratio
T1 construct: a preparation prepared from bovine blood platelets was used as an enzyme source; from tissue; host or cells: bovine blood platelets
T1 sequence (F1MFA8 1-663): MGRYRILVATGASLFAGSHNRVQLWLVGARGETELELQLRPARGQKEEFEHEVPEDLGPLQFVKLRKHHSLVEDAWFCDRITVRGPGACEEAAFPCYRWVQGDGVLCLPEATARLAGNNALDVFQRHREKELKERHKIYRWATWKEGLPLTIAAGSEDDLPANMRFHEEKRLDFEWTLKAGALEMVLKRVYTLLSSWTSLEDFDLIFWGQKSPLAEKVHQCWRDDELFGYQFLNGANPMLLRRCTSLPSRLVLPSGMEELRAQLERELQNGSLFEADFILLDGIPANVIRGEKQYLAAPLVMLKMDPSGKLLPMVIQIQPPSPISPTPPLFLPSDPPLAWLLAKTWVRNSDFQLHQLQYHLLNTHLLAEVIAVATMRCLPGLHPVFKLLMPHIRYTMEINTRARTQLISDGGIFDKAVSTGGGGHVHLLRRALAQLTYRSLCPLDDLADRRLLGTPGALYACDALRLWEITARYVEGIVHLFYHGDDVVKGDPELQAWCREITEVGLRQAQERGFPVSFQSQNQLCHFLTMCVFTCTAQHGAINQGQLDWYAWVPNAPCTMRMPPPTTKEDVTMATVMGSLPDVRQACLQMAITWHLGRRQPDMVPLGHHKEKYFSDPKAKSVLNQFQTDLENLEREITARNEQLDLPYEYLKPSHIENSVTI
Description: (§1) An inhibiting action of 2-n-heptyl-4-hydroxyquinoline-N-oxide upon lipoxygenase was determined by in vitro test according to the following procesure:
(a) Procedure for determining the inhibiting action upon blood platelet 12-lipoxygenase:
Determination was carried out according to D. H. Nugtern, et al, procedure (Biochem. Biophys. Acta, 380, 299 (1975)). That is, a preparation prepared from bovine blood platelets was used as an enzyme source. The blood platelet lipoxygenase preparation and 2-n-heptyl-4-hydroxyguinoline-N-oxide were brought into contact with each other in a 0.01M tris hydrochloric acid buffer solution (pH 7.4) at 30° C. for 5 minutes in advance, and then 35 μM of [^14 C]arachidonic acid was added thereto. The mixture was incubated at 30° C. for 10 minutes. The reaction product was extracted with ethyl acetate/methanol/0.2M citric acid (30/4/1), and then separated by thin layer chromatography (developing solvent system: ligroin/ethyl ether/acetic acid: (50/50/1). The spot of 12-hydroxy-5,8,10,14-eicosatetraenoic acid in the product was scraped off and ^14 C was measured by a liquid scintillation counter.
(§2) Inhibiting actions of compounds in Table 2 upon lipoxygenase were determined in the same manner as in Test Example 1.

[2] = tested on: SRS-A production; test: suppressing action upon production of SRS-A (lung pieces of actively sensitized guinea pigs, EWA challenge); type: cell-based, guinea pig; conditions: for inhibition at 8.3 µg/mL: 8.3 μg/ml; for suppression of the production of SRS-A (in words): Table 4, 8.3 μg/ml
Description: An inhibiting action of 2-n-heptyl-4-hydroxyquinoline-N-oxide upon SRS-A production was determined according to the following procedure:
According to Watanabe-Kohno and Parker procedure (J. Immunol., 125, 946 (1980)), 20 mg of egg white albumin (hereinafter abbreviated as EWA), was dissolved in 10 ml of physiological saline solution, and the resulting solution was added to an equal volume of Freund's complete adjuvant to prepare an emulsion. Then, 1 ml of the emulsion was administered subcutaneously in the plantar surface of the hind paws of guinea pigs to make the animals actively sensitized. Three to five weeks thereafter, the guinea pigs were sacrified by exsanguination from the carotid artery, and the Tyrode's solution was perfused through right cardiac ventricle to wash lungs and remove blood. Then, the lungs were isolated and cut to pieces of about 2 mm size in the chilled Tyrode's solution with scissors, filtered through 2 sheets of gauze. Then, 400 mg of the fragments were distributed into individual test tubes containing 5 ml of the Tyrode's solution. The lung pieces were preincubated at 37° C. for 10 minutes, 0.5 ml of a test solution at various concentrations was added thereto, and the incubation was continued for 10 minutes at 37° C. Then, 0.5 ml of EWA (20 mg/ml) was added thereto, and the mixture was further incubated for 15 minutes. The reaction was discontinued by ice-cooling the mixture, and then the mixture was filtered through a sheet of gauze.
(§3) The amount of SRS-A in the filtrate was bioassayed using guinea pig ileum according to the Magnus procedure. That is, the ileums were suspended in 10 ml of organ bath filled with the Tyrode's solution (31 ±1° C., aerated with 95% O2 +5% CO2 gas mixture), and their movements were recorded on a recorder with a pen (Hitachi: QPD54) through an isotonic transducer (Nihon Koden: JD112S). After the ileum contraction reaction by 10^-7 M histamine was stabilized, 1 ml of the filtrate was added to the organ bath in the presence of 5 x 10^-7 M atropine and 10^-6 M tripelennamine to cause the ileum contraction reaction. It was known that the ileum contraction reaction by SRS-A was increased by repetitive applications and, therefore, after the reaction by at least 5 applications of the SRS-A prepared in advance became constant, control filtrate and a filtrate containing a test solution were used.
Suppressing actions of 2-n-propyl-4-hydroxyquinoline-N-oxide and 2-n-undecyl-4-hydroxyquinoline-N-oxide upon production of SRS-A were determined in the same manner as in Test Example 3.

[3] = target: T2, 5-lipoxygenase (Rattus norvegicus, UniProt P12527); test: inhibiting action upon leukocyte 5-lipoxygenase (RBL-1 cells as enzyme source); type: biochemical
T2 construct: leukemic basophilic granulocyte cells of rats (RBL-1, ATCC No. CRL 1378) were used as a 5-lipoxygenase enzyme source; host or cells: RBL-1 (rat basophilic leukemia cells)
T2 sequence (P12527 1-673): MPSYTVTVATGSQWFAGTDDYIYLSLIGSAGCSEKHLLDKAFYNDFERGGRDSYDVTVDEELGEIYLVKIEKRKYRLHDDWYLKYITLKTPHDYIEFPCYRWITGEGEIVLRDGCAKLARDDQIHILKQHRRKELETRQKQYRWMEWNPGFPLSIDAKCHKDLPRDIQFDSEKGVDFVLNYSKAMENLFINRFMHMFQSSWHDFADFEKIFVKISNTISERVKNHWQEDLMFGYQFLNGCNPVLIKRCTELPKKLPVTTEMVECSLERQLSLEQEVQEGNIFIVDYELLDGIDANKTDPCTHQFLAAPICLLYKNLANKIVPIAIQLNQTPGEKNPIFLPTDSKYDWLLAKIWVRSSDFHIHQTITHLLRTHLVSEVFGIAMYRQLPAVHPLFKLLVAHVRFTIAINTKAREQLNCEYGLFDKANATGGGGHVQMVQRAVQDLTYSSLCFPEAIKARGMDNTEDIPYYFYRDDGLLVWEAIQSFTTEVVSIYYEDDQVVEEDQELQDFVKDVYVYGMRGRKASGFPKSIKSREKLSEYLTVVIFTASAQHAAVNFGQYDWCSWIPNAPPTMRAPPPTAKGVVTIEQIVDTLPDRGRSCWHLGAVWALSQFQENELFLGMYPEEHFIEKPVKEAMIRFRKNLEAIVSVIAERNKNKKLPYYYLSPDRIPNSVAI
Description: as §1
(b) Procedure for determining the inhibiting action upon leukocyte 5-lipoxygenase:
Determination was carried out according to modified B. A. Jakschik, et al, procedure (Biochem. Biophys. Res. Commun. 95, 103 (1980)). That is, leukemic basophilic granulocyte cells of rats (RBL-1, ATCC No. CRL 1378) were used as a 5-lipoxygenase enzyme source. The cells and 2-n-heptyl-4-hydroxyquinoline-N-oxide were brought into contact with each other in a 0.07 M tris hydrochloric acid buffer solution in the presence of 0.7 mM calcium chloride at 37° C. for 5 minutes, and then 20 μM of [^14 C]-arachidonic acid was added thereto. The mixture was incubated at 37° C. for 5 minutes. The reaction product was extracted with ethyl acetate/methanol/0.2M citric acid (30/4/1), and then separated by thin layer chromatography (developing solvent: petroleum ether/ethyl ether/acetic acid: 50/50/1). Spots of 5-hydroxy-[…]-eicosatetraenoic acid in the product were scraped off and ^14 C was measured by a liquid scintillation counter.
as §2

[4] = tested on: airway contraction reaction of passively sensitized guinea pigs; test: suppressing action upon anaphylactic airway contraction reaction of passively sensitized guinea pigs; type: in vivo, guinea pig; conditions: 10 mg/kg P.O. one hour before antigen EWA (1 mg/kg); 6 guinea pigs vs 18 control
Description: Suppressing action of 2-n-heptyl-4-hydroxyquinoline-N-oxide upon the airway contraction reaction of passively sensitized guinea pigs was determined according to the following procedure:
Anaphylactic airway contraction reaction of passively sensitized guinea pigs by antigen administration was determined according to modified Konzett and Rossler procedure (Arch. exp. Path. Pharmakol., 195, 71 (1940)). Anti-EWA guinea pig serum (1 ml/animal) was intraperitoneally administered into normal guinea pigs to make the animals passively sensitized, and 24 hours thereafter, a tracheal cannule was inserted and fixed to the guinea pig under urethane anesthesia. An artificial respirator and a bronchospasm transducer were connected to the cannule. After the spontaneous respiration was stopped by intravenous injection of 10 mg/kg of gallamine triethiodide, 1 mg/kg of EWA was injected into the jugular vein to cause anaphylactic airway contraction, and the volume of air overflow from the tracheal cannule sideway was recorded on a polygraph through the transducer. After the end of measurement, the trachea was completely blockaded. The state of complete blockade was regarded as a maximum contraction, and the results were given in percentage to the maximum contraction.

[5] = tested on: SRS-A; test: guinea pig ileum contraction reaction by SRS-A (Magnus procedure); conditions: 3×10^-7 M
Description: as §3

[6] = Cavia porcellus, read-out: Suppressing ratio, production of SRS-A
[7] = Table 2, same manner as Test Example 1

inhibition at 1000 µM ([1]; 10 min): 46.3% | IC50 [3, 7]: 110 µM
SMILES: CCCc1cc(O)c2ccccc2[n+]1[O-] [2-n-propyl-4-hydroxyquinoline-N-oxide]
inhibition at 8.3 µg/mL [2, 6]: 34.1% | suppression of the production of SRS-A (in words) [2]: suppress the production of SRS-A

IC50 ([1]; bovine blood platelet preparation, 35 μM [14C]arachidonic acid, pH 7.4, 30° C., 10 min, read-out: IC50, 12-lipoxygenase): 25 µM
SMILES: NC1=NN(c2cccc(C(F)(F)F)c2)CC1 [BW-755C, 3-amino-1-(3-trifluoromethylphenyl)-2-pyrazoline hydrochloride, reference compound]
inhibition at 40 µg/mL ([2]; Cavia porcellus, 40 μg/ml, read-out: Suppressing ratio, production of SRS-A): 23.8 ± 8.8%

inhibition at 1000 µM ([1]; 10 min): 56% | IC50 [3, 7]: 1 µM
SMILES: CCCCCCCCCCCCCCCc1cc(O)c2ccccc2[n+]1[O-] [2-n-pentadecyl-4-hydro-xy-quinoline-N--oxide]

SMILES: CCCCCCCc1cc(O)c2ccccc2[n+]1[O-] [2-n-heptyl-4-hydroxyquinoline-N-oxide]
IC50 [1]: 30 µM | inhibiting action upon 12-lipoxygenase compared with BW-755C ([1]; in words): almost equal to that of known compound | formation of SRS-A (in words) ([2]; 4, 40, and 400 μg/ml): suppressed by application of 4, 40, and 400 μg/ml of the present compound in a dose dependent manner | inhibition at 4 µg/mL [2, 6]: 26.2 ± 4.2% | inhibition at 40 µg/mL [2, 6]: 60.1 ± 3.7% | inhibition at 400 µg/mL [2, 6]: 84.3 ± 1.1% | intensity of SRS-A suppression compared with BW-755C ([2]; in words, measured at the same time): obviously better than the suppressing action of BW-755C | suppression of airway contraction reaction (increase in air overflow) [4]: significantly suppressed | IC50 [3]: 0.15 µM | inhibiting action upon 5-lipoxygenase compared with BW-755C ([3]; in words): much better in the present compound

SMILES: CCCc1c(OCC(O)COc2ccc3c(=O)cc(C(=O)O)oc3c2CCC)ccc(C(C)=O)c1O (centres unmarked) [FPL-55712]
suppression of ileum contraction reaction by SRS-A [5]: almost completely suppressed

inhibition at 1000 µM ([1]; 10 min): 55.7% | IC50 [3, 7]: 0.2 µM
SMILES: CCCCCCCCCCCc1cc(O)c2ccccc2[n+]1[O-] [2-n-undecyl-4-hydroxyquinoline-N-oxide]
inhibition at 8.3 µg/mL [2, 6]: 17.5% | suppression of the production of SRS-A (in words) [2]: suppress the production of SRS-A

— US4618613A, “Preventive and healing composition for diseases due to lipoxygenase metabolic products” (Kyowa Hakko Kogyo Company, Ltd., priority 1983, dated 1986)
